The results in this text go back to ChEMBL document CHEMBL1201862, “PubChem BioAssay data set” (2004).

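Values below derive from 48-hour exposures of cells grown in 96-well plates, with endpoints linearly interpolated between the two concentrations bracketing the appropriate inhibition level. At the GI50, growth is halved.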 Activity calls are given as the source filed them. Rule as the data show it: active = GI50 up to about 1.1 µM and inactive = higher.

What all share (experiment): DTP human tumour cell line panel, 48 h
Assay [1] has as its system DMS-114.
Assay [2] has as its system HOP-18.
Assay [3] concerns DLD-1.
Assay [4] concerns KM-20L2.
In assay [5] the test system is M19-MEL.
Assay [6] concerns XF498.
Assay [7] relates to LXFL 529.
In assay [8] the test system is RXF 631.
For assay [9], the system named is SNB-78.

As to `O=C(Nc1cc(Cl)ccc1Cl)c1cc2ccccc2oc1=O`, the GI50 in assay [1] is 78 µM (inactive); in assay [2], 20.9 µM (inactive); in assay [3], > 100 µM (inactive); in [4], > 100 µM (inactive); in [5] it was > 100 µM (inactive).

As for `CCP(C)(=O)CC`, the GI50 in assay [1], in [2], in assay [6], in assay [3], in [7] and in assay [4] was > 100 µM (inactive) throughout. Moreover, the GI50 in [5], in assay [8] and in [9] was > 100 µM (inactive) throughout.

Regarding `O=C1C(=O)N(c2ccc(Cl)c(Cl)c2)C(=O)C(=O)C1c1nc2ccccc2o1`, the GI50 in [6] was 51.5 µM (inactive); in [3], 59.2 µM (inactive); in assay [7] it was 93.8 µM (inactive); in assay [4] it was > 100 µM (inactive); in assay [5] it was 58.7 µM (inactive); in assay [8] it was 43.5 µM (inactive). The GI50 in assay [9] is 66.4 µM (inactive).

Consider `CC(C)C(Sc1nc(-c2ccccc2)c(-c2ccccc2)[nH]1)C(=O)N/N=C/c1ccc(Cl)cc1` (centres undefined), for which the GI50 in assay [1] was 24.3 µM (inactive); in [3] it was 36.1 µM (inactive); in assay [7] it was 32.1 µM (inactive); in [4] it was 20.6 µM (inactive); in [5] it was 19.4 µM (inactive); in [9], 28.7 µM (inactive).

On to `NC1=NN(c2ccccc2)C(=O)C1C(=O)CCC(=O)Nc1cccc(C(F)(F)F)c1` (centres undefined), for which the GI50 in assay [1] was > 100 µM (inactive); in [2], > 100 µM (inactive); in assay [3] it was 48.8 µM (inactive); in [7], 36.8 µM (inactive); in assay [4], 72.6 µM (inactive); in assay [5], > 100 µM (inactive). Moreover, the GI50 in assay [8] and in assay [9] was > 100 µM (inactive) in each case.

Take `CN(C)CC1CC/C(=C\c2ccc(O)cc2)C1=O` (centres undefined): the GI50 in assay [1] is 10 µM (inactive); in [2], 6.35 µM (inactive); in assay [6] it was 5.82 µM (inactive); in [3] it was 2.58 µM (inactive); in assay [7], 1.85 µM (inactive); in [4], 9.55 µM (inactive). Also, the GI50 was 2.78 µM (inactive) in assay [5] and 11.4 µM (inactive) in assay [9].

Regarding `C#CCOCn1cnc2c(N)ncnc21`, the GI50 in assay [1], in [2], in [6], in [3], in assay [7] and in [4] was > 100 µM (inactive) in each case. In addition, the GI50 in [5], in assay [8] and in assay [9] was > 100 µM (inactive) each time.

`CC(C)(C)/N=C1/CC(C)(C)c2ccccc2/C(=N\c2ccccc2)S1`: the GI50 in assay [1] is 26.7 µM (inactive); in assay [6], 21.1 µM (inactive); in assay [3] it was 26.3 µM (inactive); in assay [7], 29.9 µM (inactive); in [4], 31.8 µM (inactive); in assay [5] it was 36 µM (inactive). Besides, in [9], the GI50 is 41.5 µM (inactive).

For the compound `Cc1nc2ccccc2nc1NS(=O)(=O)c1ccc(N)cc1`, the GI50 in [2], in assay [6], in [3], in [7], in assay [4] and in assay [5] was > 100 µM (inactive) each time. The GI50 in assay [8] and in assay [9] was > 100 µM (inactive) in each case.

Turning to `C/C(=N\N=C(/S)N(C)C)c1cccc[n+]1[O-]`, the GI50 in [1] was 0.482 µM (active); in [2], > 100 µM (inactive); in assay [3] it was 2.18 µM (inactive); in assay [7] it was 0.466 µM (active); in assay [4], 5.61 µM (inactive); in [5], > 100 µM (inactive). Further, the GI50 in assay [8] and in assay [9] was > 100 µM (inactive) throughout.

Take `S=P(N1CCCC1)(N1CC1)N1CC1`: the GI50 in assay [1] was 99.5 µM (inactive); in assay [2] it was > 100 µM (inactive); in assay [6] it was > 100 µM (inactive); in assay [3], > 100 µM (inactive); in assay [4], > 100 µM (inactive); in assay [5] it was > 100 µM (inactive). Besides, in assay [9], the GI50 is > 100 µM (inactive).

Turning to `CCC1(c2c(F)c(F)c(N)c(F)c2F)CCC(=O)NC1=O` (centres undefined), the GI50 in assay [1], in [2], in [6], in [3], in assay [7] and in assay [5] was > 100 µM (inactive) each time. In addition, in assay [9], the GI50 was > 100 µM (inactive).

Regarding `COC(=O)C1=CC(=O)[C@@H]2CCCC[C@H]12`, the GI50 in assay [1], in [2], in assay [3], in assay [7], in assay [4] and in assay [5] was > 100 µM (inactive) each time. Moreover, the GI50 in assay [8] and in assay [9] was > 100 µM (inactive) throughout.

Regarding `O=C(CC(=O)n1nc(-c2ccccc2)c(/N=N/c2ccccc2Cl)c1-c1ccccc1)Nc1ccc(Cl)cc1`, the GI50 in assay [1] was > 41.7 µM (inactive); in assay [2], > 100 µM (inactive); in assay [6], > 100 µM (inactive); in assay [3] it was > 43.6 µM (inactive); in assay [7], > 100 µM (inactive); in assay [4], > 57.3 µM (inactive). Besides, the GI50 in [5] is 21.7 µM (inactive).

As to `N#CCCC(C#N)(C#N)CCC#N`, the GI50 in assay [1], in assay [6], in assay [7], in assay [4] and in assay [5] was > 100 µM (inactive) in each case.

`Cc1ccc(C2=C(c3ccccc3)C(Br)(c3ccccc3)C(c3ccccc3)=C2c2ccc(C)cc2)cc1`: the GI50 in assay [1], in [2], in [6], in assay [3], in assay [7] and in assay [4] was > 100 µM (inactive) each time. The GI50 in [5] and in assay [9] was > 100 µM (inactive) in each case.

Regarding `c1ccc(SCCCC(Sc2ccccc2)Sc2ccccc2)cc1`, the GI50 in [1], in assay [6], in assay [3], in assay [7], in assay [4] and in assay [5] was > 100 µM (inactive) throughout. The GI50 in assay [9] was > 100 µM (inactive).

Turning to `COc1ccc(Cc2cc(OC)c(OC)c(OC)c2)cc1`, the GI50 in [3] is 0.33 µM (active); in assay [7] it was 0.541 µM (active); in assay [4] it was 0.181 µM (active); in assay [9] it was 3.34 µM (inactive).

Take `O=c1[nH]c(=O)n(C2CC(O)C(CO)O2)cc1COCC(F)(F)F` (centres undefined): the GI50 in assay [1], in [6], in assay [3], in assay [7], in [4] and in assay [5] was > 100 µM (inactive) in each case. In addition, the GI50 in [8] and in [9] was > 100 µM (inactive) each time.

On to `CC1=CC2C(=O)N(c3ccccc3)C(=O)C2CC1n1[nH]c(=O)n(Cc2ccccc2)c1=O` (centres undefined), for which the GI50 in assay [2], in assay [6], in assay [3], in [7], in assay [4] and in [9] was > 100 µM (inactive) throughout.

`Nc1nc(O)c([N+](=O)[O-])c(NCCOCP(=O)(O)O)n1`: the GI50 in assay [2], in [6], in assay [3], in [7], in [4] and in assay [5] was > 100 µM (inactive) each time. In addition, the GI50 in assay [9] is > 100 µM (inactive).

Take `Cc1ccccc1C(=O)c1ccccc1O`: the GI50 in assay [1], in [2], in assay [6], in assay [3], in assay [7] and in assay [4] was > 100 µM (inactive) each time. Besides, the GI50 in [5], in [8] and in assay [9] was > 100 µM (inactive) each time.

As for `CN(CO)c1nc(N(C)CO)nc(N(C)CO)n1` [TRIMELAMOL], the GI50 in assay [2] is 18.8 µM (inactive); in [6], 5.75 µM (inactive); in assay [3], 10.2 µM (inactive); in assay [4], 8.85 µM (inactive); in assay [5], 8.04 µM (inactive); in assay [9], 9.77 µM (inactive).

As to `N#CC(NNC(=O)c1ccccc1O)c1ccc(O)cc1` (centres undefined), the GI50 is 2.3 µM (inactive) in [1]; 9.1 µM (inactive) in [2]; 4.06 µM (inactive) in assay [7]; 23.4 µM (inactive) in assay [4]; 5.38 µM (inactive) in assay [5].

What is called GI50 is the concentration giving 50% growth inhibition.
